According to article PMC11499995 (Communications Biology, 2024):

Biological target: T1, mNeonGreen (Branchiostoma lanceolatum, UniProt A0A1S4NYF2, C173I/S175A/W191I)
T1 sequence (A0A1S4NYF2 25-260 C173I/S175A/W191I): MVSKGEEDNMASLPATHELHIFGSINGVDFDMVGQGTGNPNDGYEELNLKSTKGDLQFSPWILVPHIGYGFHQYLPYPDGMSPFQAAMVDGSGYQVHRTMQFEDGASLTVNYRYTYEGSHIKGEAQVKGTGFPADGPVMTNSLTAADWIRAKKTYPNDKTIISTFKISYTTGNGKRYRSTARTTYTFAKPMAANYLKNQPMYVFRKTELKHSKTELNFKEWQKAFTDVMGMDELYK
Assay: fluorescence quenching titration, purified protein
Assay type: binding

Kd: 33 ± 3 mM
Compound: O=S(=O)(O)O [sulfate]
